Experimental data from US11905537B2, “Bifunction chemical epigenetic modifiers and methods of use” (The University of North Carolina at Chapel Hill, priority 2017, dated 2024).
“And” between values parts separate entries of the source, which are not always exact repeats. Identical values can stand only once.

Key:
Type in all cases: cell-based, human
[1] = test system: BFP reporter gene downstream of a tre3g promoter; assay: BFP reporter activation in HEK 293T cells with dCas9 systems, flow cytometry
Description: To test for changes in gene expression, human embryonic kidney (HEK) 293T cells were transfected with a BFP reporter gene downstream of a tre3g promoter and performed flow cytometry on at least 100,000 cells after co-expressing the gRNA and dCas9 machinery(Ma, D. et al. Nat. Commun. 7, 13056 (2016)). As a benchmark control for gene activation, a dCas9-p300 fusion protein known to increase expression was used (Hilton, I. B. et al., Nat. Biotechnol. 33, 510-517 (2015)). Using a gRNA that targets the tre3g promoter at six interspaced sites, the dCas9-p300 increased BFP expression 14-fold compared to the non-targeting (NT) control gRNA (FIG. 21A, p<0.05). Next, activating the reporter gene with a plasmid expressing dCas9 (N-terminus)-FKBPx2 (C-terminus) was tested using three predicted activating bifunctional CEMs.
Cell culture: Low passage (p30-40) HEK 293T cells were cultured with high-glucose DMEM (Corning, 10-013-CV) supplemented with 10% FBS serum (Atlantic Biologicals, S11550), 10 mM HEPES (Corning, 25-060-Cl), NEAA (Gibco, 11140-050), Pen/Strep, and 55 μM 2-Mercaptoethanol. Cells were passaged every 2-5 days and maintained at 10-90% confluency in an incubator at 37° C. and 5% CO2.
Cell Transfection: For FIG. 21, HEK 293T cells were split into 12-well plates with 100,000 cells per well. The next day, PEI (polyethlenimine, Polysciences #23966-1) transfection was done with 1 μg of DNA, 3 μL of PEI, and 100 μL of Optimem (Gibco, 31985070). For FIGS. 21A, 21B, 22, and 23 we transfected with 0.1 μg BFP reporter; 0.7 μg dCas9-X; 0.2 μg gRNA. For FIG. 19C, FIG. 19D, FIG. 24, and FIG. 24 we transfected with 0.1 μg BFP reporter; 0.5 μg dCas9-X; 0.2 μg scFv-FKBP or ms2-FKBP; 0.2 μg gRNA. Media was change 16 hours after transfection with fresh media, with or without bifunctional CEMa addition. After 48 hours of bifunctional CEMa exposure, cells were isolated for flow cytometry analysis. For FIG. 23, HEK 293T cells were split into 6-well plates with 200,000 cells per well. The next day, PIE transfection was done with 3 μg of DNA, 9 μL of PEI, and 200 μL of Optimem. For FIGS. 23A-C and 26, 3 μg of gRNA was added in equal ratio (if applicable). Media was change 16 hours after transfection with fresh media, with or without bifunctional CEMa addition. After 48 hours of bifunctional CEMa exposure, cells were isolate for RNA extraction.
Flow cytometry: Flow cytometry was performed with the Attune Nxt as previously described (Chiarella, A. M. et al. Biochemistry 57, 2756-2761 (2018)). The data presented represents three separate transfections and significance was determined with the student's t-test.

ASCL1 = assay: Endogenous ASCL1 activation in HEK 293T cells, qRT-PCR; conditions: 48 hours
Description: (§1) Next, the plasmid-optimized dCas9-CEMa system was adapted to target endogenous mammalian genes. Because an endogenous gene was being targeted rather than hundreds of transiently expressing reporter plasmids, the dCas9 machinery (dCas9-p300, dCas9-FKBPx2 and/or MCP-FKBP) was chosen to transfect HEK 293T cells. After the cells were stably selected for integration of the dCas9- and MCP-expressing plasmids, the gRNAs that were designed to target endogenous genes were transfected. To determine the time point at which to observe more efficient dCas9 regulation by this method, cells expressing dCas9-p300 were transfected with gRNAs for myogenic differentiation (MYOD1), the RNA was extracted and qRT-PCR was performed after 24, 48 and 72 hours post transfection. […]
(§2) RNA extraction: For FIGS. 23 and 26, cells from the 6-well plates were isolated. […] RNA extraction was performed with an RNeasy Plus Mini Kit (Qiagen, 74134) and the relative enrichment of mRNA was quantified with the RNA-to-CTr 1-step kit (Thermo Fisher Scientific, 4389986). […]

CXCR4 = assay: Endogenous CXCR4 activation in HEK 293T cells, qRT-PCR; conditions: 48 hours
Description: as §1, §2

HEK 293T cells = assay: Cell health by cell density and morphology in the dose curve; conditions: concentrations of 500 nM and above, data not shown
Procedure: The dCas9 “SunTag” system was adapted to be compatible with the bifunctional CEMa technology(Tanenbaum, M. E. et al. Cell 159, 635-646 (2014); (Chavez, A. et al. Nat. Methods 13, 563-567 (2016)). Using the improved dCas9-CEMa system (dCas9-FKBPx2, ms2-FKBP, tre3g ×6 gRNA, BFP reporter), the effects of a global epigenetic inhibitor in combination with a gene-specific approach was tested. After the cells were transfected, they were treated with 200 nM of CEM87 and 2.5 μM of Entinostat. BFP expression increased 34-fold compared to unreated cells as measured by flow cytometry. More specifically, A dCas9-SunTagx10 plasmid was used that expresses an array of 10 yeast-specific GCN4 (gene control protein 4) peptides from the C-terminus of the dCas9, and co-transfected with a single chain variable fragment (scFv), (made to be GCN4-specific) fused to FKBP. Theoretically, as many as 10 FKBP molecules per dCas9 would be recruited to the gene of interest, increasing the bifunctional CEMa recruitment power. With the adapted SunTag method and the tre3g ×6 gRNA, 48 hours of 200 nM CEM87 exposure increased expression 16-fold compared to untreated cells (FIG. 24, p<0.001). […] With the improved dCas9 system and the most efficient bifunctional CEMa, CEM87, a dose-curve was performed and the ideal concentration for maximum expression was determined to be 200 nM (FIG. 21D). […]

MYOD1 = assay: Endogenous MYOD1 activation in HEK 293T cells, qRT-PCR; conditions: 200 nM, 48 hours
Description: as §1, §2

[2] = dCas9-FKBPx2 (FIG. 21B legend: dCas9-FKBPx1), 200 nM, 48 hours, vs untreated cells
[3] = dCas9-SunTagx10 with scFv-FKBP, tre3g ×6 gRNA, 200 nM, 48 hours, vs untreated

Compound | increase in BFP expression [1, 2] | increase in BFP expression ([1]; dCas9-FKBPx2, ms2-FKBP, tre3g ×6 gRNA, equivalent concentration, vs cells expressing NT gRNA) | increase in BFP expression [1, 3] | increase in ASCL1 in NT samples (ASCL1; NT gRNA samples) | increase in ASCL1 mRNA levels (ASCL1; dCas9-FKBPx2 and ms2-FKBP, ASCL1 gRNAs, vs untreated) | change in CXCR4 expression with NT gRNA (CXCR4; NT gRNA control cells) | increase in CXCR4 expression (CXCR4; dCas9-FKBPx2 and ms2-FKBP, CXCR4 gRNAs, vs untreated) | cell health (cell density and morphology) (HEK 293T cells) | increase in BFP expression in combination with HDACi ([1]; 200 nM CEM87 plus 2.5 μM entinostat, dCas9-FKBPx2, ms2-FKBP, vs untreated cells) | increase in BFP expression ([1]; dCas9-FKBPx2, 6×-tre3g gRNA, 200 nM, 48 hours, vs untreated) | increase in BFP expression ([1]; dCas9-FKBPx2, ms2-FKBP, tre3g ×6 gRNA, 200 nM, vs untreated cells) | activation of BFP expression ([1]; dCas9-FKBPx2, multiplex gRNA, 200 nM, 48 hours, vs untreated) | increase in BFP expression ([1]; dCas9-FKBPx2, single site gRNA in gene body, 200 nM, 48 hours, vs untreated) | effect on BFP expression with dCas9-HA ([1]; dCas9-HA (no FKBP recruitment site), 6×-tre3g gRNA, 200 nM, 48 hours) | activation of BFP expression ([1]; dose curve, 10 nM, dCas9-FKBPx2, ms2-FKBP) | activation of BFP expression ([1]; dose curve, 50 nM, dCas9-FKBPx2, ms2-FKBP) | ideal concentration for maximum expression ([1]; dose curve, dCas9-FKBPx2, ms2-FKBP) | MYOD1 expression change with NT gRNAs (MYOD1; NT gRNA control cells) | increase in MYOD1 mRNA levels (MYOD1; dCas9-FKBPx2 and ms2-FKBP, MYOD1 gRNAs, vs untreated, normalized to Gapdh)
CO[C@H]1C[C@@H](C)C/C(C)=C/[C@@H](CCCSCCC(=O)NCCOCCOCCOCCn2cc(COc3ccc(CCc4nc5cc(-c6c(C)noc6C)ccc5n4CCN4CCOCC4)cc3F)nn2)C(=O)C[C@H](O)[C@@H](C)[C@@H](/C(C)=C/[C@@H]2CC[C@@H](O)[C@H](OC)C2)OC(=O)[C@@H]2CCCCN2C(=O)C(=O)[C@]2(O)O[C@H]1[C@@H](OC)C[C@H]2C [CEM114] | 1.6 fold | 6 fold | 2 fold | – | – | – | – | – | – | – | – | – | – | – | – | – | – | – | –
COc1ccc2c(c1)C(c1ccc(Cl)cc1)=N[C@@H](CC(=O)NCc1cn(CCOCCOCCOCCNC(=O)CCSCCC[C@@H]3/C=C(\C)C[C@H](C)C[C@H](OC)[C@H]4O[C@@](O)(C(=O)C(=O)N5CCCC[C@H]5C(=O)O[C@H](/C(C)=C/[C@@H]5CC[C@@H](O)[C@H](OC)C5)[C@H](C)[C@@H](O)CC3=O)[C@H](C)C[C@@H]4OC)nn1)c1nnc(C)n1-2 [CEM87] | 7.5 fold and ~7 fold | – | 16 fold | less than 4 fold | 22 fold | less than 2 fold | 10 fold | appeared less healthy | 34 fold | 5 fold | 18 fold | 4 fold | 2 fold | did not significantly affect the BFP expression | 2 fold | 8 fold | 200 nM | no significant changes in expression | 13 fold
